Assays:
[1] = molecular target: cAMP-dependent protein kinase A (Bos taurus, UniProt P00515+P00517+P05131+P31322); test: Inhibition of Protein kinase A (PKA) activity, Enzyme assay was done using gamma-[32P]ATP and synthetic peptide substrates; type: protein-complex assay
[2] = molecular target: MAP kinase p38 (Homo sapiens, UniProt O15264+Q15759+Q16539+P53778); test: Inhibition of p38 Mitogen-activated protein kinase; type: protein assay
[3] = molecular target: Protein kinase C (PKC); test: Inhibition of Protein kinase C (PKC) activity, Enzyme assay done using gamma-[32P]ATP and synthetic peptide substrates; set-up: species or system Rattus norvegicus
[4] = molecular target: Ca2+/calmodulin-dependent protein kinase II (CaM kinase II) (Rattus norvegicus, UniProt P11275+P08413+P15791+P11730); test: Inhibition of Calcium/calmodulin-dependent protein kinase type II (CaMKII) activity; type: protein assay
[5] = molecular target: Myosin light chain kinase, smooth muscle (Gallus gallus, UniProt P11799); test: Inhibition of Myosin Light Chain kinase (MLCK)
Myosin light chain kinase, smooth muscle, sequence (P11799 whole entry): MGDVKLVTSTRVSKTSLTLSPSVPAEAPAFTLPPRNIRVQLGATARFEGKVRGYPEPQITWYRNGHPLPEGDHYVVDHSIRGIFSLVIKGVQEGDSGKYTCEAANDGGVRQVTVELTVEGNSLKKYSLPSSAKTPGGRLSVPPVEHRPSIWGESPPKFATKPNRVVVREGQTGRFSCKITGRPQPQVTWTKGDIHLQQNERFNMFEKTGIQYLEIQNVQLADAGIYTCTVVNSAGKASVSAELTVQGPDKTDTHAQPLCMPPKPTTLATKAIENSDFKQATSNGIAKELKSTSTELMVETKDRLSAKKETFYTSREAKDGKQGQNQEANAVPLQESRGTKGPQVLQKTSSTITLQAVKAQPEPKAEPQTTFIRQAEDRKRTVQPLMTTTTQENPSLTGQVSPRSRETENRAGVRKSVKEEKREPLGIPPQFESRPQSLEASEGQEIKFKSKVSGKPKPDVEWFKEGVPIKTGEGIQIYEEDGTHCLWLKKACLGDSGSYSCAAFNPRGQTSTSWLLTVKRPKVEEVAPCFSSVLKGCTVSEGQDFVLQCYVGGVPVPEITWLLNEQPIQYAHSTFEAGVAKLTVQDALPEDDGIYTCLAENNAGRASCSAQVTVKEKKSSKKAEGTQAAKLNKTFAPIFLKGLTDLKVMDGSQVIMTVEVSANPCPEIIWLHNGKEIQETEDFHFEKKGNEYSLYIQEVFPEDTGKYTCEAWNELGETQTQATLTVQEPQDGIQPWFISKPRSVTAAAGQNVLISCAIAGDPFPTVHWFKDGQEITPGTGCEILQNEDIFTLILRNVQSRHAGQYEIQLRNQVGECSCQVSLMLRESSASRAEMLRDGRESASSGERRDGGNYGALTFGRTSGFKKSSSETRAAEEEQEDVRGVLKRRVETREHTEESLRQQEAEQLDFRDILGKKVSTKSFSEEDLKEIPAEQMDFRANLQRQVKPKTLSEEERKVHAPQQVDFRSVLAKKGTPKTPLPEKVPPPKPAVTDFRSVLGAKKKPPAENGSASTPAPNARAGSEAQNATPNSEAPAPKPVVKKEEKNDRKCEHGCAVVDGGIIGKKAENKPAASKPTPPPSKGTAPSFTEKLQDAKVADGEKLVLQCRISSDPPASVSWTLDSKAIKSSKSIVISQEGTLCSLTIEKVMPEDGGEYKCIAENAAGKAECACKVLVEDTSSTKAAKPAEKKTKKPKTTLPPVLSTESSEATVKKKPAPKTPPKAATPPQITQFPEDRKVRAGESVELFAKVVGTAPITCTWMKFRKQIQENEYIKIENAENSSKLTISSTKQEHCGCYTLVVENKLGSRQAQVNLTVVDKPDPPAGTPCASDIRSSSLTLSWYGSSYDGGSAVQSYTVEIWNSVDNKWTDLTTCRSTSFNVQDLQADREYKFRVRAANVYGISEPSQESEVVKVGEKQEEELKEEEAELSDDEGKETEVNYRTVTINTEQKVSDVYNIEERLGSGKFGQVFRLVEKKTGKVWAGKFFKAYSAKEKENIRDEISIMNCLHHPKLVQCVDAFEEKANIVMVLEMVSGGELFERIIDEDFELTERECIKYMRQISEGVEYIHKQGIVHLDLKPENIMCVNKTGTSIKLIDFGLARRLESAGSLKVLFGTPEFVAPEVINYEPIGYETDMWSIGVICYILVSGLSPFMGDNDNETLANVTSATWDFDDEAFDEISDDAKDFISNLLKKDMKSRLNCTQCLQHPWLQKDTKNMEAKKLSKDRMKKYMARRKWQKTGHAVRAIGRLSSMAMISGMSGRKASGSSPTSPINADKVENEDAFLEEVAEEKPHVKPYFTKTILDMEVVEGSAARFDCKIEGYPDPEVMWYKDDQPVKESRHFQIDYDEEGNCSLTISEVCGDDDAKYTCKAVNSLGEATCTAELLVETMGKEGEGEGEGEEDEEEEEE

Compound | IC50 [1] | IC50 [2] | IC50 [3] | IC50 [4] | IC50 [5]
COc1ccc(S(=O)(=O)N(CCO)c2ccccc2CN(C)C/C=C/c2ccc(Cl)cc2)cc1 | > 100 µM | > 100 µM | > 100 µM | 8.4 µM | –
N=c1cc2c(nn1CCCCCCCCCCC(=O)N1CCN(c3ncccn3)CC1)-c1ccccc1CC2 | > 100 µM | > 100 µM | > 100 µM | 9.7 µM | > 100 µM
